Test results reported in ChEMBL document CHEMBL1140552, “Preparation, characterization and in vivo conversion of new water-soluble sulfenamide prodrugs of carbamazepine” (Bioorg Med Chem Lett, 2007).

Key:
[1] = tested on: Rattus norvegicus; experiment: AUC in Sprague-Dawley rat assessed as carbamazepine level at 4.54 mg/187 g, iv; assay type: ADME, organism-based, Plasma; settings: in vivo
[2] = tested on: Rattus norvegicus; experiment: AUC in Sprague-Dawley rat assessed as carbamazepine level at 5.50 mg/227 g, iv; assay type: ADME, organism-based, Plasma; settings: in vivo
[3] = tested on: Rattus norvegicus; experiment: Cmax in Sprague-Dawley rat assessed as carbamazepine level at 4.54 mg/187 g, iv; assay type: ADME, organism-based; set-up: route intravenous; settings: in vivo
[4] = tested on: Rattus norvegicus; experiment: Cmax in Sprague-Dawley rat assessed as carbamazepine level at 5.50 mg/227 g, iv; assay type: ADME, organism-based; set-up: route intravenous; settings: in vivo
[5] = Solubility at pH 2.6; assay type: physicochemical; settings: buffer

For `NCCSNC(=O)N1c2ccccc2C=Cc2ccccc21.O=C(O)C(F)(F)F`, which AUC [1] is on record?
The AUC was 964 µg/min/mL.

And the AUC [2]?
Its AUC is 545 µg/min/mL.

And the Cmax [3]?
Its Cmax is 14100 ng/mL.

What about the Cmax [4] of the same compound?
Its Cmax is 16300 ng/mL.

And the solubility [5]?
The solubility was 100 mg/mL.
